# Data: PubChem BioAssay (NCI)
#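 Following 48 hours of exposure in 96-well plates, responses at five concentrations were used to interpolate endpoints linearly. TGI is the concentration that stops growth completely.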
# How the values were obtained:
# Assay in all cases: NCI tumour cell line growth inhibition, 48 h
# 786-0 renal = test system: 786-0 renal
# A498 renal = test system: A498 renal
# A549 NSCLC = test system: A549 NSCLC
# ACHN renal = test system: ACHN renal
# BT-549 breast = test system: BT-549 breast
# CAKI-1 renal = test system: CAKI-1 renal
# CCRF-CEM leukemia = test system: CCRF-CEM leukemia
# COLO 205 colon = test system: COLO 205 colon
# DU-145 prostate = test system: DU-145 prostate
# EKVX NSCLC = test system: EKVX NSCLC
# HCC-2998 colon = test system: HCC-2998 colon
# HCT-116 colon = test system: HCT-116 colon
# HCT-15 colon = test system: HCT-15 colon
# HL-60(TB) leukemia = test system: HL-60(TB) leukemia
# HOP-62 NSCLC = test system: HOP-62 NSCLC
# HOP-92 NSCLC = test system: HOP-92 NSCLC
# HS 578T breast = test system: HS 578T breast
# HT29 colon = test system: HT29 colon
# IGROV1 ovarian = test system: IGROV1 ovarian
# K-562 leukemia = test system: K-562 leukemia
# KM12 colon = test system: KM12 colon
# LOX IMVI melanoma = test system: LOX IMVI melanoma
# M14 melanoma = test system: M14 melanoma
# MALME-3M melanoma = test system: MALME-3M melanoma
# MCF7 breast = test system: MCF7 breast
# MDA-MB-231 breast = test system: MDA-MB-231 breast
# MDA-MB-435 = test system: MDA-MB-435
# MDA-N = test system: MDA-N
# MOLT-4 leukemia = test system: MOLT-4 leukemia
# NCI-H226 lung = test system: NCI-H226 lung
# NCI-H23 lung = test system: NCI-H23 lung
# NCI-H460 lung = test system: NCI-H460 lung
# NCI-H522 lung = test system: NCI-H522 lung
# NCI/ADR-RES ovarian = test system: NCI/ADR-RES ovarian
# OVCAR-3 ovarian = test system: OVCAR-3 ovarian
# OVCAR-4 ovarian = test system: OVCAR-4 ovarian
# OVCAR-5 ovarian = test system: OVCAR-5 ovarian
# OVCAR-8 ovarian = test system: OVCAR-8 ovarian
# PC-3 prostate = test system: PC-3 prostate
# RPMI-8226 leukemia = test system: RPMI-8226 leukemia
# RXF 393 renal = test system: RXF 393 renal
# SF-268 CNS = test system: SF-268 CNS
# SF-295 CNS = test system: SF-295 CNS
# SF-539 CNS = test system: SF-539 CNS
# SK-MEL-2 melanoma = test system: SK-MEL-2 melanoma
# SK-MEL-28 melanoma = test system: SK-MEL-28 melanoma
# SK-MEL-5 melanoma = test system: SK-MEL-5 melanoma
# SK-OV-3 ovarian = test system: SK-OV-3 ovarian
# SN12C renal = test system: SN12C renal
# SNB-19 CNS = test system: SNB-19 CNS
# SNB-75 CNS = test system: SNB-75 CNS
# SR leukemia = test system: SR leukemia
# SW-620 colon = test system: SW-620 colon
# T-47D breast = test system: T-47D breast
# TK-10 renal = test system: TK-10 renal
# U251 CNS = test system: U251 CNS
# UACC-257 melanoma = test system: UACC-257 melanoma
# UACC-62 melanoma = test system: UACC-62 melanoma
# UO-31 renal = test system: UO-31 renal
structure (smiles),measurement,setting,value
Cc1ccc(OCC2OC(n3cnc4nc(Cl)nc(Cl)c43)CC2Oc2ccc(C)cc2)cc1 (centres undefined),TGI,786-0 renal,19.9 µM
same,TGI,A498 renal,72.2 µM
same,TGI,A549 NSCLC,> 63.3 µM
same,TGI,ACHN renal,7.9 µM
same,TGI,BT-549 breast,30.4 µM
same,TGI,CAKI-1 renal,9.75 µM
same,TGI,CCRF-CEM leukemia,> 23.1 µM
same,TGI,COLO 205 colon,27.6 µM
same,TGI,DU-145 prostate,27.2 µM
same,TGI,EKVX NSCLC,34 µM
same,TGI,HCC-2998 colon,12.2 µM
same,TGI,HCT-116 colon,17.9 µM
same,TGI,HCT-15 colon,6.33 µM
same,TGI,HL-60(TB) leukemia,3.94 µM
same,TGI,HOP-62 NSCLC,34.8 µM
same,TGI,HOP-92 NSCLC,9.88 µM
same,TGI,HS 578T breast,54.6 µM
same,TGI,HT29 colon,20.4 µM
same,TGI,IGROV1 ovarian,19.7 µM
same,TGI,K-562 leukemia,4.83 µM
same,TGI,KM12 colon,23.7 µM
same,TGI,LOX IMVI melanoma,3.45 µM
same,TGI,M14 melanoma,20.5 µM
same,TGI,MALME-3M melanoma,33.9 µM
same,TGI,MCF7 breast,20.6 µM
same,TGI,MDA-MB-231 breast,6.56 µM
same,TGI,MDA-MB-435,24.3 µM
same,TGI,MDA-N,13.7 µM
same,TGI,MOLT-4 leukemia,5.76 µM
same,TGI,NCI-H226 lung,36.3 µM
same,TGI,NCI-H23 lung,24.5 µM
same,TGI,NCI-H460 lung,20.2 µM
same,TGI,NCI-H522 lung,4.31 µM
same,TGI,NCI/ADR-RES ovarian,37.8 µM
same,TGI,OVCAR-3 ovarian,18.9 µM
same,TGI,OVCAR-4 ovarian,56.1 µM
same,TGI,OVCAR-5 ovarian,32.1 µM
same,TGI,OVCAR-8 ovarian,59.5 µM
same,TGI,PC-3 prostate,24.5 µM
same,TGI,RPMI-8226 leukemia,9.35 µM
same,TGI,RXF 393 renal,15.7 µM
same,TGI,SF-268 CNS,23.4 µM
same,TGI,SF-295 CNS,30.6 µM
same,TGI,SF-539 CNS,13.9 µM
same,TGI,SK-MEL-2 melanoma,18.1 µM
same,TGI,SK-MEL-28 melanoma,14.1 µM
same,TGI,SK-MEL-5 melanoma,30.8 µM
same,TGI,SK-OV-3 ovarian,> 89.5 µM
same,TGI,SN12C renal,20.5 µM
same,TGI,SNB-19 CNS,30.1 µM
same,TGI,SNB-75 CNS,28.5 µM
same,TGI,SR leukemia,5.65 µM
same,TGI,SW-620 colon,28 µM
same,TGI,T-47D breast,30.7 µM
same,TGI,TK-10 renal,28.7 µM
same,TGI,U251 CNS,55.5 µM
same,TGI,UACC-257 melanoma,29.6 µM
same,TGI,UACC-62 melanoma,20.5 µM
same,TGI,UO-31 renal,22 µM
